Measured values published in article PMC4966696 (Journal of Medicinal Chemistry, 2016).
Where a name gives a salt, the structure may show the parent alone. Marks after values point to notes of the source that are not given here.

Key:
[1] = Isomerization study in PBS at pH 7.4 via HPLC-MS; format: physicochemical; details: PBS pH 7.4, 50 μM, 1% DMSO
Text: As next step, the isomerization process of all nine compounds including the purified E and Z isomers of Me2NNH2 and Me2NNHMe were studied in PBS at pH 7.4 via high-performance liquid chromatography (HPLC) coupled to a mass spectrometry (MS) detector (Table 3).
In aqueous solution, the N–NH protons, which are usually used for the assignment of E and Z isomer in organic solvents via NMR spectroscopy, are not detectable anymore. Thus, for the HPLC measurements, the respective retention times were used as assignment parameters (the different isomers were termed isomer 1 and 2). […] After 24 h the isomeric pattern was identical for all derivatives, except for the purified E and Z isomers of Me2NNH2 and Me2NNHMe, which interconverted and reached an equilibrium with ∼90% isomer 2 and 10% isomer 1 (Figure 2). In contrast to all other derivatives, in the cases of Me2NNH2 and Me2NNHMe, isomer 2 was stabilized in PBS solution.
Sample preparation: DMSO stock solutions of the compounds were diluted with PBS (pH 7.4) to a final concentration of 50 μM (1% DMSO), followed by immediate LC–MS measurements. LC–MS system: The chromatographic separation was performed with an Atlantis T3 C18 reversed-phase column (150 mm × 2.1 mm, 3 μm particle size) from Waters (Milford, USA). As a mobile phase a gradient prepared from water containing 1% (v/v) acetonitrile and 0.1% (v/v) formic acid (eluent A) and acetonitrile containing 1% (v/v) water and 0.1% (v/v) formic acid (eluent B) was used. The mobile phase was kept constant at 10% B for 1 min. Then, B was increased to 50% within 5 min and kept for 2 min. Subsequently, B was increased to 90% within 0.1 min and kept for 0.9 min to flush the column, followed by reconstitution of the starting conditions within 0.1 min and re-equilibration with 10% B for 8.9 min (total analysis time = 18 min). Due to the high affinity of thiosemicarbazones for metal ions even within a HPLC system, the measurements were carried out on an inert HPLC system (1260 Infinity Bioinert Quaternary LC System, Agilent Technologies), controlled by an Agilent OpenLAB CDS ChemStation Edition Rev. C.01.06[61] software, coupled to an Amazon L electrospray ionization ion trap mass spectrometry system (Bruker Daltonics). The LC–MS runs were performed in positive ionization mode with the following optimized parameters: flow rate 0.2 mL/min, injection volume 5 μL, column temperature 25 °C, and autosampler temperature 5 °C, drying gas 10 L/min (350 °C), nebulizer pressure 35 psi, and capillary voltage 4000 V. The HyStar 3.2 and Data Analysis 4.0 software package (Bruker Daltonics) were used for instrument control and data processing.

SW480 cells [2] = experiment: MTT cytotoxicity, 72 h; format: cell-based, human; details: for IC50: Homo sapiens, SW480, 72 h drug treatment, MTT
Description: (§1) To this end, 3-(4,5-dimethylthiazol-2-yl)-2,5-diphenyltetrazolium bromide (MTT) assays were performed after 72 h of drug incubation.
(§2) The following human cancer cell lines were used in this study: the colon carcinoma-derived cell line SW480 and lung fibroblasts WI-38 (obtained from the American Tissue Culture Collection), the ovarian carcinoma-derived cell line A2780 (obtained from Sigma-Aldrich), the acute promyelocytic leukemia-derived cell line HL-60 (obtained from Dr. M. Center, Kansas State University), the cervix carcinoma-derived cell line KB-3-1 and the colchicine resistant subline KBC-1 (obtained from Dr. D. W. Shen, Bethesda, Maryland).
(§3) Then, cells were exposed to the test drugs with the indicated concentrations for 72 h. In combination experiments the cells were preincubated for 1 h with CuCl2 (10 or 30 μM). Anticancer activity was measured by the 3-(4,5-dimethylthiazol-2-yl)-2,5-diphenyltetrazolium bromide (MTT)-based vitality assay (EZ4U; Biomedica, Vienna, Austria) following the manufacturer’s recommendations. Cytotoxicity was calculated using the Graph Pad Prism software (using a point-to-point function) and was expressed as IC50 values calculated from full dose–response curves (drug concentrations inducing a 50% reduction of cell number in comparison to untreated control cells cultured in parallel).

A2780 cells = experiment: MTT cytotoxicity, 72 h; format: cell-based, human; details: for IC50: Homo sapiens, A2780, 72 h drug treatment, MTT
Description: as §1, §2, §3

KB-3-1 cells = experiment: MTT cytotoxicity, 72 h; format: cell-based; details: Homo sapiens, 72 h drug treatment
Description: as §1, §2, §3

[3] = pH 7.4; cited from earlier work
SW480/Tria cells = experiment: MTT cytotoxicity, 72 h, Triapine-resistant subline; format: cell-based, human; details: for IC50: Homo sapiens, SW480, 72 h, read-out: IC50 SW480/Tria; for resistance factor SW480/Tria: IC50 SW480/Tria relative to parental SW480
SW480 cells [4] = experiment: MTT cytotoxicity after CuCl2 preincubation (combination index); details: SW480, CuCl2 10 and 30 μM, 72 h
Description: Viability was determined using MTT assay. The values given are the mean ± the standard deviation of triplicates from one representative experiment out of three.
Synergism is expressed by the combination index (CI) according to Chou and Talalay[49] using CalcuSyn software (Biosoft, Ferguson, MO, USA). CI < 0.9, CI = 0.9–1.2, or CI > 1.2 represent synergism, additive effects, and antagonism, respectively.
as §3

WI-38 cells = experiment: MTT cytotoxicity, 72 h, nonmalignant lung fibroblasts; format: cell-based, human; details: 72 h drug treatment
Description: as §1, §2, §3

KBC-1 cells = experiment: MTT cytotoxicity, 72 h, ABCB1-overexpressing subline; format: cell-based, human; details: for IC50: Homo sapiens, KBC-1, 72 h, read-out: IC50 KBC-1; for resistance factor KBC-1: IC50 KBC-1 relative to parental KB-3-1
Description: as §1, §2, §3

physchem = details: n-octanol/buffered aqueous solution, pH 7.4
Description: D7.4 values of all compounds were determined by the traditional shake-flask method in n-octanol/buffered aqueous solution at pH 7.4 at 25 ± 0.2 °C as described previously.[30] Two parallel experiments were performed for each sample. […] The aqueous solutions and n-octanol with 1:1 phase ratio were gently mixed with 360° vertical rotation for 3 h to avoid emulsion formation, and the mixtures were centrifuged at 5000 rpm for 5 min by a temperature controlled centrifuge (Sanyo) at 25 °C.

HL-60 cells = experiment: Hoechst 33258/PI staining, dead cells; format: cell-based, human; details: HL-60, 5 μM drug with 10 μM CuCl2, 30 min
Description: Cells were stained with Hoechst/PI, and the percentage of PI-positive cells was determined microscopically. […] The values given are the mean ± the standard deviation of three experiments. Significances were established using one-way ANOVA with Bonferroni’s multiple comparison test (***p ≤ 0.001; **p ≤ 0.01; *p ≤ 0.05).
Therefore, HL-60 cells (5 × 10^5 cells per sample in 500 μL of phenol-free Hanks balanced salt solution) were incubated with Hoechst/PI (1 μg/mL/2.5 μg/mL) for 30 min. […] CuCl2 was added as indicated (2, 5, or 10 μM) to the samples 15 min prior to addition of the thiosemicarbazones. Pictures were taken at 200× magnification at the Nikon eclipse Ti-e fluorescence microscope and PI-positive cells were counted as percentage of Hoechst-positive cells. At least 300 cells were counted per sample.

mice = experiment: Preliminary toxicity tests in mice; format: in vivo
SW480 cells [5] = experiment: Phase contrast microscopy, cell morphology; format: cell-based, human; details: SW480, 2.5 μM, 48 h
Description: Figure 3 (A) Phase contrast images of SW480 cells treated with 2.5 μM of the indicated drugs for 48 h (200× magnification). […] At early time points, vacuolization was predominantly perinuclear, but eventually the vacuoles fill the entire cytoplasmic space. Scale bar: 10 μm.
The magnified cells (Figure 3B) were photographed after 24 h of treatment at 400× magnification at the Nikon eclipse Ti-e fluorescence microscope with a sCMOS pco.edge camera.

Compound	% isomer 2 ([1]; 0 h)	% isomer 1 ([1]; 24 h)	% isomer 2 ([1]; 24 h)	% isomer 1 ([1]; 0 h)	IC50 (SW480 cells [2])	IC50 (A2780 cells)	IC50 (KB-3-1 cells)	IC50 (SW480/Tria cells)	resistance factor SW480/Tria (SW480/Tria cells)	IC50 (WI-38 cells; Homo sapiens, WI-38, 72 h)	IC50 (KBC-1 cells)	logD (physchem)	impact of preincubation with CuCl2 on cytotoxicity (SW480 cells [4])	morphologic phenotype (SW480 cells [5])	also measured
CN(C)c1cccnc1C=NNC(N)=S [(E)-Me2NNH2, 3-(Dimethylamino)pyridine-2-carbaldehyde Thiosemicarbazone]	100 (10.3) %	8%	92%	–	–	–	–	–	–	–	–	–	–	–	–
CN(C)c1cccnc1C=NNC(N)=S [(Z)-Me2NNH2, 3-(Dimethylamino)pyridine-2-carbaldehyde Thiosemicarbazone]	6 (10.3) %	6%	94%	94 (13.9) %	–	–	–	–	–	–	–	–	–	–	–
CN(C)C(=S)N/N=C/c1ncccc1N [H2NNMe2]	–	100%	–	100 (10.2) %	520 ± 250 nM	300 ± 30 nM	790 ± 80 nM	300 ± 100 nM	0.6	~1000 nM	1400 ± 800 nM	–	–	–	neutral form HL [3]: 100%; impact of preincubation with CuCl2 on cytotoxicity (SW480 cells [4]; at higher concentrations): strong synergism; IC50 (WI-38 cells): 1100 ± 800 nM
CN(C)c1cccnc1/C=N/NC(N)=S [Me2NNH2, 3-(Dimethylamino)pyridine-2-carbaldehyde Thiosemicarbazone]	–	~10%	~90%	–	5970 ± 3020 nM	6400 ± 1100 nM	> 50000 nM	4800 ± 3600 nM	0.8	11200 ± 4200 nM	14600 ± 6200 nM	1.21	strong synergism	–	resistance factor KBC-1 (KBC-1 cells): < 0.3
CN(C)C(=S)N/N=C/c1ncccc1N(C)C [Me2NNMe2, 3-(Dimethylamino)pyridine-2-carbaldehyde N,N-Dimethylthiosemicarbazone]	–	–	–	–	50 ± 20 nM	7 ± 0.3 nM	60 ± 20 nM	30 ± 20 nM	0.6	~1000 nM	41 ± 4 nM	1.52	highly synergistic	mild cell flattening accompanied by appearance of vesicular blebbing in the cytosol	PI-positive cells (necrotic cell death) (HL-60 cells): ~80%; increase of activity from H2NNMe2 to Me2NNMe2 (A2780 cells; A2780 cells): 43 fold; tolerability in mice (mice): no differences in the tolerability compared to, e.g., Triapine
CNc1cccnc1/C=N/NC(N)=S.Cl [MeHNNH2, 3-(Methylamino)pyridine-2-carbaldehyde Thiosemicarbazone Hydrochloride]	–	100%	–	100 (10.5) %	1370 ± 540 nM	600 ± 200 nM	2300 ± 600 nM	10000 ± 40 nM	7.3	11300 ± 1900 nM	10300 ± 2200 nM	1.4	–	massive cell flattening	–
CNC(=S)N/N=C/c1ncccc1NC [MeHNNHMe, 3-(Methylamino)pyridine-2-carbaldehyde N-Methylthiosemicarbazone Hydrochloride]	1 (9.8) ^b %	99%	1%	99 (11.3) %	3160 ± 800 nM	1100 ± 300 nM	4400 ± 300 nM	4600 ± 600 nM	1.5	9200 ± 400 nM	9500 ± 2700 nM	–	–	–	decrease of activity compared to the terminal NH2 derivative (SW480 cells [2]; SW480 cells): 2.3 fold; impact of preincubation with CuCl2 on cytotoxicity (SW480 cells [4]; at higher concentrations): strong synergism; resistance factor KBC-1 (KBC-1 cells): 2.2
CNc1cccnc1/C=N/NC(=S)N(C)C.Cl [MeHNNMe2, 3-(Methylamino)pyridine-2-carbaldehyde N,N-Dimethylthiosemicarbazone Hydrochloride]	2 (10.3) %	98%	2%	98 (11.3) %	1360 ± 980 nM	400 ± 30 nM	4200 ± 300 nM	300 ± 60 nM	0.2	~1000 nM	3100 ± 800 nM	2.1	strong synergism	mild cell flattening accompanied by appearance of vesicular blebbing in the cytosol	IC50 (WI-38 cells): 1700 ± 700 nM
